From patent USRE31731E, “Herbicidal 4-trifluoromethyl-4-nitrodiphenyl ethers” (priority 1978, dated 1984)

What follows are compounds tested on Monocots (assay: Herbicidal activity, preemergence, monocot weeds (Table II)). Conditions: pre-emergence, 336 h, 2 lb./A., about 2 weeks, read-out: % control (percent of plants killed).
Format: in vivo
Experimental: (§1) Using the procedure described below, diphenyl ethers were evaluated for control of the following weeds: […]
(§2) barnyardgrass (Echinochloa crusgalli) crabgrass (Digitaria spp.) nutsedge (Cyperus esculentus)
(§3) At 2 and 4 pounds per acre:
(§4) **Bermudagrass (Cynodon dactylon)
(§5) *downy brome (Bromus tectorum) foxtail (Setaria faberii)
(§6) Johnsongrass (Sorghum halepense) […]
(§7) quackgrass (Agropyron repens)
(§8) *ryegrass (Lolium perenne)
(§9) *yellow millet (Panicum miliaceum)
(§10) The following test procedure is employed. Seeds of selected crops and weeds are planted in soil in flats. For preemergence tests, the flats are treated with the test compound immediately after the planting. For postemergence tests, the seeds are allowed to germinate, and after 2 weeks the flats are treated with the test compound. The compound to be evaluated is dissolved in acetone, diluted with water, and sprayed over the flats using a carrier volume equivalent to 50 gallons per acre at the rate of application (pounds per acre, lb/A.) specified in the tables. About 2 weeks after the application of the test compound, the state of growth of the plants is observed and the phytotoxic effect of the compound is evaluated. Table II gives the average percent control achieved by the test compounds in terms of the percent of the plants which are killed by the compounds.

SMILES	pest or weed control at 2241.7 g/ha [%]
CC(=O)Oc1cc(Oc2ccc(C(F)(F)F)cc2Cl)ccc1[N+](=O)[O-] [Example 18, 2-Chloro-α,α,α-trifluoro-p-tolyl-3-acetoxy-4-nitrophenyl ether]	99
O=C(O)c1cc(Oc2ccc(C(F)(F)F)cc2Cl)ccc1[N+](=O)[O-] [Example 48, 2-Chloro-α,α,α-trifluoro-p-tolyl-3-carboxy-4-nitrophenyl ether]	100
CCNc1cc(Oc2ccc(C(F)(F)F)cc2Cl)ccc1[N+](=O)[O-] [Example 19, 2-Chloro-α,α,α-trifluoro-p-tolyl-3-ethylamino-4-nitrophenyl ether]	77

Same assay, conditions: pre-emergence, 336 h, 4 lb./A., about 2 weeks, read-out: % control (percent of plants killed)

SMILES	pest or weed control at 4483.4 g/ha [%]
CC(=O)Oc1cc(Oc2ccc(C(F)(F)F)cc2Cl)ccc1[N+](=O)[O-] [Example 18, 2-Chloro-α,α,α-trifluoro-p-tolyl-3-acetoxy-4-nitrophenyl ether]	67
O=C(O)c1cc(Oc2ccc(C(F)(F)F)cc2Cl)ccc1[N+](=O)[O-] [Example 48, 2-Chloro-α,α,α-trifluoro-p-tolyl-3-carboxy-4-nitrophenyl ether]	99
CCNc1cc(Oc2ccc(C(F)(F)F)cc2Cl)ccc1[N+](=O)[O-] [Example 19, 2-Chloro-α,α,α-trifluoro-p-tolyl-3-ethylamino-4-nitrophenyl ether]	91

The compounds below were run on Dicots (assay: Herbicidal activity, preemergence, dicot weeds (Table II)). Conditions: pre-emergence, 336 h, 2 lb./A., about 2 weeks, read-out: % control (percent of plants killed).
Format: in vivo
Experimental: as §1
(§11) bindweed (Convolvulus arvensis) curly dock (Remex crispus) velvetleaf (Abutilon theophrasti) wild mustard (Brassica haber)
(§12) At 2 and 4 pounds per acre: […]
(§13) cocklebur (Xanthium pensylvanicum)
(§14) **coffeeweed (Sesbania macrocarpa)
(§15) *curly dock (Rumex crispus)
(§16) *lambsquarters (Chenopodium album) morningglory (Ipomoea purpurea)
(§17) *pigweed (Amaranthus retroflexus)
(§18) **ragweed (Ambrosia artemisiifolia)
(§19) *smartweed (Polygonum pensylvanicum)
(§20) **tomato (Lycopersicon esculentum)
(§21) *wild carrot (Daucus carota)
(§22) *wild mustard (Brassica haber)
as §10

SMILES	pest or weed control at 2241.7 g/ha [%]
CC(=O)Oc1cc(Oc2ccc(C(F)(F)F)cc2Cl)ccc1[N+](=O)[O-] [Example 18, 2-Chloro-α,α,α-trifluoro-p-tolyl-3-acetoxy-4-nitrophenyl ether]	100
O=C(O)c1cc(Oc2ccc(C(F)(F)F)cc2Cl)ccc1[N+](=O)[O-] [Example 48, 2-Chloro-α,α,α-trifluoro-p-tolyl-3-carboxy-4-nitrophenyl ether]	100
CCNc1cc(Oc2ccc(C(F)(F)F)cc2Cl)ccc1[N+](=O)[O-] [Example 19, 2-Chloro-α,α,α-trifluoro-p-tolyl-3-ethylamino-4-nitrophenyl ether]	91

Same assay, conditions: pre-emergence, 336 h, 4 lb./A., about 2 weeks, read-out: % control (percent of plants killed)

SMILES	pest or weed control at 4483.4 g/ha [%]
CC(=O)Oc1cc(Oc2ccc(C(F)(F)F)cc2Cl)ccc1[N+](=O)[O-] [Example 18, 2-Chloro-α,α,α-trifluoro-p-tolyl-3-acetoxy-4-nitrophenyl ether]	100
O=C(O)c1cc(Oc2ccc(C(F)(F)F)cc2Cl)ccc1[N+](=O)[O-] [Example 48, 2-Chloro-α,α,α-trifluoro-p-tolyl-3-carboxy-4-nitrophenyl ether]	97
CCNc1cc(Oc2ccc(C(F)(F)F)cc2Cl)ccc1[N+](=O)[O-] [Example 19, 2-Chloro-α,α,α-trifluoro-p-tolyl-3-ethylamino-4-nitrophenyl ether]	96

What follows are compounds tested on Monocots (assay: Herbicidal activity, postemergence, monocot weeds (Table II)). Conditions: post-emergence, 336 h, 2 lb./A., about 2 weeks, read-out: % control (percent of plants killed).
Format: in vivo
Experimental: as §1, §2, §3, §4, §5, §6, §7, §8, §9, §10

SMILES	pest or weed control at 2241.7 g/ha [%]
CC(=O)Oc1cc(Oc2ccc(C(F)(F)F)cc2Cl)ccc1[N+](=O)[O-] [Example 18, 2-Chloro-α,α,α-trifluoro-p-tolyl-3-acetoxy-4-nitrophenyl ether]	28
O=C(O)c1cc(Oc2ccc(C(F)(F)F)cc2Cl)ccc1[N+](=O)[O-] [Example 48, 2-Chloro-α,α,α-trifluoro-p-tolyl-3-carboxy-4-nitrophenyl ether]	84
CCNc1cc(Oc2ccc(C(F)(F)F)cc2Cl)ccc1[N+](=O)[O-] [Example 19, 2-Chloro-α,α,α-trifluoro-p-tolyl-3-ethylamino-4-nitrophenyl ether]	94

Same assay, conditions: post-emergence, 336 h, 4 lb./A., about 2 weeks, read-out: % control (percent of plants killed)

SMILES	pest or weed control at 4483.4 g/ha [%]
CC(=O)Oc1cc(Oc2ccc(C(F)(F)F)cc2Cl)ccc1[N+](=O)[O-] [Example 18, 2-Chloro-α,α,α-trifluoro-p-tolyl-3-acetoxy-4-nitrophenyl ether]	28
O=C(O)c1cc(Oc2ccc(C(F)(F)F)cc2Cl)ccc1[N+](=O)[O-] [Example 48, 2-Chloro-α,α,α-trifluoro-p-tolyl-3-carboxy-4-nitrophenyl ether]	75
CCNc1cc(Oc2ccc(C(F)(F)F)cc2Cl)ccc1[N+](=O)[O-] [Example 19, 2-Chloro-α,α,α-trifluoro-p-tolyl-3-ethylamino-4-nitrophenyl ether]	84

Each compound was assayed on Dicots (assay: Herbicidal activity, postemergence, dicot weeds (Table II)). Conditions: post-emergence, 336 h, 2 lb./A., about 2 weeks, read-out: % control (percent of plants killed).
Format: in vivo
Experimental: as §1, §11, §12, §13, §14, §15, §16, §17, §18, §19, §20, §21, §22, §10

SMILES	pest or weed control at 2241.7 g/ha [%]
CC(=O)Oc1cc(Oc2ccc(C(F)(F)F)cc2Cl)ccc1[N+](=O)[O-] [Example 18, 2-Chloro-α,α,α-trifluoro-p-tolyl-3-acetoxy-4-nitrophenyl ether]	98
O=C(O)c1cc(Oc2ccc(C(F)(F)F)cc2Cl)ccc1[N+](=O)[O-] [Example 48, 2-Chloro-α,α,α-trifluoro-p-tolyl-3-carboxy-4-nitrophenyl ether]	97
CCNc1cc(Oc2ccc(C(F)(F)F)cc2Cl)ccc1[N+](=O)[O-] [Example 19, 2-Chloro-α,α,α-trifluoro-p-tolyl-3-ethylamino-4-nitrophenyl ether]	97

Same assay, conditions: post-emergence, 336 h, 4 lb./A., about 2 weeks, read-out: % control (percent of plants killed)

SMILES	pest or weed control at 4483.4 g/ha [%]
CC(=O)Oc1cc(Oc2ccc(C(F)(F)F)cc2Cl)ccc1[N+](=O)[O-] [Example 18, 2-Chloro-α,α,α-trifluoro-p-tolyl-3-acetoxy-4-nitrophenyl ether]	86
O=C(O)c1cc(Oc2ccc(C(F)(F)F)cc2Cl)ccc1[N+](=O)[O-] [Example 48, 2-Chloro-α,α,α-trifluoro-p-tolyl-3-carboxy-4-nitrophenyl ether]	100
CCNc1cc(Oc2ccc(C(F)(F)F)cc2Cl)ccc1[N+](=O)[O-] [Example 19, 2-Chloro-α,α,α-trifluoro-p-tolyl-3-ethylamino-4-nitrophenyl ether]	98

Each compound was assayed on corn (assay: Crop tolerance, corn). Conditions: postemergence; 50% or less kill of crop at rates giving more than 50% kill of weeds.
Format: in vivo
Experimental: as §10
(§23) Following the general test procedure of Example 73, diphenyl ethers are evaluated for significant tolerance (as shown by 50% or less kill of the test crop at levels of application which give more than 50% kill of many or all of the weeds of Example 73) towards some or all of the following common agronomic crops (not all compounds tested against all crops): alfalfa, snapbeans, corn, cotton, cucumbers, peanuts, rape, rice, safflower, soybeans, tomatoes, and wheat.

SMILES	Tolerance to corn
CC(=O)Oc1cc(Oc2ccc(C(F)(F)F)cc2Cl)ccc1[N+](=O)[O-] [Example 18, 2-Chloro-α,α,α-trifluoro-p-tolyl-3-acetoxy-4-nitrophenyl ether]	Tolerance
CCNc1cc(Oc2ccc(C(F)(F)F)cc2Cl)ccc1[N+](=O)[O-] [Example 19, 2-Chloro-α,α,α-trifluoro-p-tolyl-3-ethylamino-4-nitrophenyl ether]	Tolerance

Same assay, conditions: preemergence; 50% or less kill of crop at rates giving more than 50% kill of weeds

SMILES	Tolerance to corn
CCNc1cc(Oc2ccc(C(F)(F)F)cc2Cl)ccc1[N+](=O)[O-] [Example 19, 2-Chloro-α,α,α-trifluoro-p-tolyl-3-ethylamino-4-nitrophenyl ether]	Tolerance

Each compound was assayed on peanuts (assay: Crop tolerance, peanuts). Conditions: postemergence; 50% or less kill of crop at rates giving more than 50% kill of weeds.
Format: in vivo
Experimental: as §10, §23

SMILES	Tolerance to peanuts
CC(=O)Oc1cc(Oc2ccc(C(F)(F)F)cc2Cl)ccc1[N+](=O)[O-] [Example 18, 2-Chloro-α,α,α-trifluoro-p-tolyl-3-acetoxy-4-nitrophenyl ether]	Tolerance
O=C(O)c1cc(Oc2ccc(C(F)(F)F)cc2Cl)ccc1[N+](=O)[O-] [Example 48, 2-Chloro-α,α,α-trifluoro-p-tolyl-3-carboxy-4-nitrophenyl ether]	Tolerance

Same assay, conditions: preemergence; 50% or less kill of crop at rates giving more than 50% kill of weeds

SMILES	Tolerance to peanuts
O=C(O)c1cc(Oc2ccc(C(F)(F)F)cc2Cl)ccc1[N+](=O)[O-] [Example 48, 2-Chloro-α,α,α-trifluoro-p-tolyl-3-carboxy-4-nitrophenyl ether]	Tolerance
CCNc1cc(Oc2ccc(C(F)(F)F)cc2Cl)ccc1[N+](=O)[O-] [Example 19, 2-Chloro-α,α,α-trifluoro-p-tolyl-3-ethylamino-4-nitrophenyl ether]	Tolerance

Each compound was assayed on rice (assay: Crop tolerance, rice). Conditions: postemergence or on transplanted rice; 50% or less kill of crop at rates giving more than 50% kill of weeds.
Format: in vivo
Experimental: as §10, §23

SMILES	Tolerance to rice
CC(=O)Oc1cc(Oc2ccc(C(F)(F)F)cc2Cl)ccc1[N+](=O)[O-] [Example 18, 2-Chloro-α,α,α-trifluoro-p-tolyl-3-acetoxy-4-nitrophenyl ether]	Tolerance
O=C(O)c1cc(Oc2ccc(C(F)(F)F)cc2Cl)ccc1[N+](=O)[O-] [Example 48, 2-Chloro-α,α,α-trifluoro-p-tolyl-3-carboxy-4-nitrophenyl ether]	Tolerance

Same assay, conditions: preemergence; 50% or less kill of crop at rates giving more than 50% kill of weeds

SMILES	Tolerance to rice
CCNc1cc(Oc2ccc(C(F)(F)F)cc2Cl)ccc1[N+](=O)[O-] [Example 19, 2-Chloro-α,α,α-trifluoro-p-tolyl-3-ethylamino-4-nitrophenyl ether]	Tolerance

Each compound was assayed on soybeans (assay: Crop tolerance, soybeans). Conditions: preemergence; 50% or less kill of crop at rates giving more than 50% kill of weeds.
Format: in vivo
Experimental: as §10, §23

SMILES	Tolerance to soybeans
CC(=O)Oc1cc(Oc2ccc(C(F)(F)F)cc2Cl)ccc1[N+](=O)[O-] [Example 18, 2-Chloro-α,α,α-trifluoro-p-tolyl-3-acetoxy-4-nitrophenyl ether]	Tolerance
O=C(O)c1cc(Oc2ccc(C(F)(F)F)cc2Cl)ccc1[N+](=O)[O-] [Example 48, 2-Chloro-α,α,α-trifluoro-p-tolyl-3-carboxy-4-nitrophenyl ether]	Tolerance
CCNc1cc(Oc2ccc(C(F)(F)F)cc2Cl)ccc1[N+](=O)[O-] [Example 19, 2-Chloro-α,α,α-trifluoro-p-tolyl-3-ethylamino-4-nitrophenyl ether]	Tolerance

The compounds below were run on wheat (assay: Crop tolerance, wheat). Conditions: postemergence; 50% or less kill of crop at rates giving more than 50% kill of weeds.
Format: in vivo
Experimental: as §10, §23

SMILES	Tolerance to wheat
CC(=O)Oc1cc(Oc2ccc(C(F)(F)F)cc2Cl)ccc1[N+](=O)[O-] [Example 18, 2-Chloro-α,α,α-trifluoro-p-tolyl-3-acetoxy-4-nitrophenyl ether]	Tolerance
O=C(O)c1cc(Oc2ccc(C(F)(F)F)cc2Cl)ccc1[N+](=O)[O-] [Example 48, 2-Chloro-α,α,α-trifluoro-p-tolyl-3-carboxy-4-nitrophenyl ether]	Tolerance

Same assay, conditions: preemergence; 50% or less kill of crop at rates giving more than 50% kill of weeds

SMILES	Tolerance to wheat
CC(=O)Oc1cc(Oc2ccc(C(F)(F)F)cc2Cl)ccc1[N+](=O)[O-] [Example 18, 2-Chloro-α,α,α-trifluoro-p-tolyl-3-acetoxy-4-nitrophenyl ether]	Tolerance
CCNc1cc(Oc2ccc(C(F)(F)F)cc2Cl)ccc1[N+](=O)[O-] [Example 19, 2-Chloro-α,α,α-trifluoro-p-tolyl-3-ethylamino-4-nitrophenyl ether]	Tolerance
